Test results: US9340590B2 (priority 2011, dated 2016)
pIC50: −log10 of the molar value. Positions of bridges follow the written chain, without caps; N, C: chain ends. Residues, ends and D or L forms follow the SMILES beside them.

Legend:
Assay in all cases: cell-based
hNav1.7 = hNav1.7 (Homo sapiens, UniProt Q15858); format: cell-based; conditions: IonWorks Quattro, use-dependent block, hNav1.7; read-out: IWQ Use Nav1.7
hNav1.5 = hNav1.5 (Homo sapiens, UniProt Q14524); conditions: IonWorks Quattro, use-dependent block, hNav1.5; read-out: IWQ Use Nav1.5
hNav1.3 = hNav1.3 (Homo sapiens, UniProt Q9NY46); conditions: IonWorks Quattro, use-dependent block, hNav1.3; read-out: IWQ Use Nav1.3
hNav1.3, sequence (Q9NY46 whole entry, looked up): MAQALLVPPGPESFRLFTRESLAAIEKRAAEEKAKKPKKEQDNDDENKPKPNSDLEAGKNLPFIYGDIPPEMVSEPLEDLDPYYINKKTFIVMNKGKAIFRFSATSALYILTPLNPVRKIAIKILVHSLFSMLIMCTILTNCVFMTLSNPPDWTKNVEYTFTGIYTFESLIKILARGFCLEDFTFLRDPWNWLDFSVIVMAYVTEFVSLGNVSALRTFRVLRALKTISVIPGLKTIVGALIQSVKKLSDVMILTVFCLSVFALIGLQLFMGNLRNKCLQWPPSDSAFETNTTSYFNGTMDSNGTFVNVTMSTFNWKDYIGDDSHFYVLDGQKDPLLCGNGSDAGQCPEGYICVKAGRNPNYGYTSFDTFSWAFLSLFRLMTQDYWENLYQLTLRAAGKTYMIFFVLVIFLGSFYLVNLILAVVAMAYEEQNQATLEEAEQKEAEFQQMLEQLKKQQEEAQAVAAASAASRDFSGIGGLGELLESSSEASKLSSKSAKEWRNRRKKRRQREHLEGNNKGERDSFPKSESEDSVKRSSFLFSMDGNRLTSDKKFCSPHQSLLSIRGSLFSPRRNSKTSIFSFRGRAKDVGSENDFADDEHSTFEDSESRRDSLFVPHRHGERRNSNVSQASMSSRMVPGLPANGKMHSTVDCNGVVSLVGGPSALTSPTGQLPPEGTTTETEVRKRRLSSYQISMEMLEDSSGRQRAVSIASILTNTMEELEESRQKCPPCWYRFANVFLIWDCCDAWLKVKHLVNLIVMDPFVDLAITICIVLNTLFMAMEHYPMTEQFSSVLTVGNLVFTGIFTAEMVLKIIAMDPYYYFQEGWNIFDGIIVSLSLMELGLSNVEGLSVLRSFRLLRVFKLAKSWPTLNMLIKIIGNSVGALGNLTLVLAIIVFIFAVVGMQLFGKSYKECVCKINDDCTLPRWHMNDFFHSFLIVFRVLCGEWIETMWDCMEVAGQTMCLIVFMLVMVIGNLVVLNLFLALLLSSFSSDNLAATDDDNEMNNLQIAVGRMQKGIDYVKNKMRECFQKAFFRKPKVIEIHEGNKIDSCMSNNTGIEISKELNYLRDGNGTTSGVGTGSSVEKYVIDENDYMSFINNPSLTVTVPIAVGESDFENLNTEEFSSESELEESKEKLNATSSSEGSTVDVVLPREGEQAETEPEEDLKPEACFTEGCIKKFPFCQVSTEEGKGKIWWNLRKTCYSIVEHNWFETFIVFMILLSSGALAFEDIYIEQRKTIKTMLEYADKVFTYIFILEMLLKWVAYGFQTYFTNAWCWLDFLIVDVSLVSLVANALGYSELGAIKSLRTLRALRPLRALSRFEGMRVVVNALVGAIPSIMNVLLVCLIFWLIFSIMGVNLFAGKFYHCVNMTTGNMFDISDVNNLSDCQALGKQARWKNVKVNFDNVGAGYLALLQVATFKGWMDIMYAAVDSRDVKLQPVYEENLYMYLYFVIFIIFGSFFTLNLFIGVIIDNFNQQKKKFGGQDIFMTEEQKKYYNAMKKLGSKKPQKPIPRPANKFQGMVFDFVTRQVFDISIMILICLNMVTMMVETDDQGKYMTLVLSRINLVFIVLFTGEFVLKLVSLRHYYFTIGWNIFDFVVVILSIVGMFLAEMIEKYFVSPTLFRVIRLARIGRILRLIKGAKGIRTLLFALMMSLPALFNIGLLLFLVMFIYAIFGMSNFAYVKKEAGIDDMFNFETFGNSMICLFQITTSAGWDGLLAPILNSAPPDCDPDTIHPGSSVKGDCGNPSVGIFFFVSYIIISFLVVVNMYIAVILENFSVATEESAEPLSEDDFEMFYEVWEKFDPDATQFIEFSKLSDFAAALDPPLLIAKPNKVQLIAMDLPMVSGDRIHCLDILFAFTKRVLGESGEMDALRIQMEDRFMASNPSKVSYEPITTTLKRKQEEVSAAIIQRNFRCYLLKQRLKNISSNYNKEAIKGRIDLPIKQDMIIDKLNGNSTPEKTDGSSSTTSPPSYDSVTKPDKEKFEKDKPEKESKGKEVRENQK

hNav1.7, sequence (Q15858 whole entry, looked up): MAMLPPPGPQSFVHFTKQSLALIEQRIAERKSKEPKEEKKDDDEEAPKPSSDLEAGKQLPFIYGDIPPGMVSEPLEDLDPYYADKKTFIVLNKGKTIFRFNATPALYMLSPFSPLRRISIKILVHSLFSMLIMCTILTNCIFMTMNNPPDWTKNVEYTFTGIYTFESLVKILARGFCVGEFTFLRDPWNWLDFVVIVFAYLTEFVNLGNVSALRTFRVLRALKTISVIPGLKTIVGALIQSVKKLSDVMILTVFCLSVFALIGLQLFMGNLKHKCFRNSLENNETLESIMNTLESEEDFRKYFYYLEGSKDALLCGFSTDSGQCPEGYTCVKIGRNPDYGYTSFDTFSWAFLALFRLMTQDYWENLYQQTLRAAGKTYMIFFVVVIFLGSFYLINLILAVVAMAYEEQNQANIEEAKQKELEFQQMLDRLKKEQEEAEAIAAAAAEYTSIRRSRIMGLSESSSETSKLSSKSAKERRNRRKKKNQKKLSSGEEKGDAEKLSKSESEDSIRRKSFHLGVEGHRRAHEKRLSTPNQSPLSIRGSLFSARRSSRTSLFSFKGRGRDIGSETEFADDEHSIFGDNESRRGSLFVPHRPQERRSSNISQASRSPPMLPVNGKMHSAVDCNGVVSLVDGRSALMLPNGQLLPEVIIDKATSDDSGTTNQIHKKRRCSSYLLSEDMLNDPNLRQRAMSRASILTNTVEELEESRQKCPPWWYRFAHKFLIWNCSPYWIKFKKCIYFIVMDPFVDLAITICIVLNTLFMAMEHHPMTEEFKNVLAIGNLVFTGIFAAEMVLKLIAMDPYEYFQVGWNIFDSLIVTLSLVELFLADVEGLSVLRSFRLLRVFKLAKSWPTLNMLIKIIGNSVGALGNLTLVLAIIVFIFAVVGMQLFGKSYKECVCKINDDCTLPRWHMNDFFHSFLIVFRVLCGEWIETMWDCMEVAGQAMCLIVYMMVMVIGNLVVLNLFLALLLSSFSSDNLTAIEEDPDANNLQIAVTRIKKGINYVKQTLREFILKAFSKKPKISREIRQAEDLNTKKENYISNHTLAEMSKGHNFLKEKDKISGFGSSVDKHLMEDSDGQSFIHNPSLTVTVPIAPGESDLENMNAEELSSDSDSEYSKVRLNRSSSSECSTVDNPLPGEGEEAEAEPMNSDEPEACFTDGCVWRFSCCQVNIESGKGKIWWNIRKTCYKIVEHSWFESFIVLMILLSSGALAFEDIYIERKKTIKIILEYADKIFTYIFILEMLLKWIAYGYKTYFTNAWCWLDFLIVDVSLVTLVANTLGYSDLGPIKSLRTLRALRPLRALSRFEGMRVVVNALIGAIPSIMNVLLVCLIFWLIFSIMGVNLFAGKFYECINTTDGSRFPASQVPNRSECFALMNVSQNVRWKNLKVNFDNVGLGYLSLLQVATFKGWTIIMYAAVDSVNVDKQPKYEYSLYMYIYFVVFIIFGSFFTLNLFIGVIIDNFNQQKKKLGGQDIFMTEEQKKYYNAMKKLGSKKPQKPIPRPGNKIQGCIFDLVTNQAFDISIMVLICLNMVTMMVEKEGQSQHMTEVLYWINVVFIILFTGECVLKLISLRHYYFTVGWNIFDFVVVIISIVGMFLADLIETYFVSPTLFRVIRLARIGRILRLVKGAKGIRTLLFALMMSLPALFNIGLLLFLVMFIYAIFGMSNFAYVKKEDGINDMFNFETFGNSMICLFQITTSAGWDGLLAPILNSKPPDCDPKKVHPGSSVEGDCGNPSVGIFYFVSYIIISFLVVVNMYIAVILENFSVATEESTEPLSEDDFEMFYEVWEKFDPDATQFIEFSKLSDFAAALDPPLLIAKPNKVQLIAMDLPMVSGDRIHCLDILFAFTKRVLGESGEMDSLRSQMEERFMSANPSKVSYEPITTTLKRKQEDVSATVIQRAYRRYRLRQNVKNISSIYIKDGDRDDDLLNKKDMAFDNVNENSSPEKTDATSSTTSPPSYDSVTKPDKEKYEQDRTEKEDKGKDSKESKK

Compound: CC[C@H](C)[C@@H]1NC(=O)[C@@H]2CSSC[C@@H]3NC(=O)[C@H](C(C)C)NC(=O)[C@H](CC(C)C)NC(=O)[C@H](CC(N)=O)NC(=O)[C@@H]4CCCN4C(=O)[C@H](CCCNC(=N)N)NC(=O)[C@H](CSSC[C@H](NC(=O)[C@@H](N)CC(=O)O)C(=O)N[C@@H](CC(C)C)C(=O)NCC(=O)N[C@@H](C)C(=O)N[C@@H](CCSC)C(=O)N[C@@H](CCCNC(=N)N)C(=O)N[C@@H](CCCCN)C(=O)N2)NC(=O)[C@H](CSSC[C@@H](C(=O)N[C@@H](CCCCN)C(=O)N[C@@H](Cc2ccc(O)cc2)C(=O)N[C@H](C(=O)N[C@@H](Cc2ccccc2)C(N)=O)C(C)C)NC(=O)[C@H](Cc2c[nH]c4ccccc24)NC(=O)[C@H](CCCCN)NC(=O)[C@H](CCC(=O)O)NC(=O)[C@H]([C@@H](C)O)NC(=O)[C@H](CCCNC(=N)N)NC(=O)[C@H](CO)NC3=O)NC(=O)[C@H](CCCCN)NC(=O)[C@H](CC(=O)O)NC(=O)[C@H](CC(N)=O)NC(=O)[C@H](CC(=O)O)NC(=O)[C@@H]2CCCN2C1=O [compound 788] (H-DCLGAMRKCIPDNDKCCRPNLVCSRTEKWCKYVF-NH2; disulfide 2-17, 9-23, 16-30)
- pIC50 (hNav1.7): < 5.30
- pIC50 (hNav1.5): 4.53
- pIC50 (hNav1.3): < 5.30

Compound: CC[C@H](C)[C@@H]1NC(=O)[C@@H]2CSSC[C@@H]3NC(=O)[C@H](C(C)C)NC(=O)[C@H](CC(C)C)NC(=O)[C@H](CC(N)=O)NC(=O)[C@@H]4CCCN4C(=O)[C@H](CCCNC(=N)N)NC(=O)[C@H](CSSC[C@H](NC(=O)[C@@H](N)CC(=O)O)C(=O)N[C@@H](CC(C)C)C(=O)NCC(=O)N[C@@H](C)C(=O)N[C@@H](CCSC)C(=O)N[C@@H](CCCNC(=N)N)C(=O)N[C@@H](CCCCN)C(=O)N2)NC(=O)[C@H](CSSC[C@@H](C(=O)N[C@@H](CCC(=O)O)C(=O)N[C@@H](Cc2ccc(O)cc2)C(=O)N[C@H](C(=O)N[C@@H](Cc2ccccc2)C(N)=O)C(C)C)NC(=O)[C@H](Cc2c[nH]c4ccccc24)NC(=O)[C@H](CCCCN)NC(=O)[C@H](Cc2c[nH]cn2)NC(=O)[C@H]([C@@H](C)O)NC(=O)[C@H](CCCNC(=N)N)NC(=O)[C@H](CO)NC3=O)NC(=O)[C@H](CCCCN)NC(=O)[C@H](CC(=O)O)NC(=O)[C@H](CC(N)=O)NC(=O)[C@H](CC(=O)O)NC(=O)[C@@H]2CCCN2C1=O [compound 789] (H-DCLGAMRKCIPDNDKCCRPNLVCSRTHKWCEYVF-NH2; disulfide 2-17, 9-23, 16-30)
- pIC50 (hNav1.7): < 5.30
- pIC50 (hNav1.5): 4.50
- pIC50 (hNav1.3): < 5.30

Compound: CC[C@H](C)[C@@H]1NC(=O)[C@@H]2CSSC[C@@H]3NC(=O)[C@H](C(C)C)NC(=O)[C@H](CC(C)C)NC(=O)[C@H](CC(N)=O)NC(=O)[C@@H]4CCCN4C(=O)[C@H](CCCNC(=N)N)NC(=O)[C@H](CSSC[C@H](NC(=O)[C@@H](N)CC(=O)O)C(=O)N[C@@H](CC(C)C)C(=O)NCC(=O)N[C@@H](C)C(=O)N[C@@H](CCSC)C(=O)N[C@@H](CCCNC(=N)N)C(=O)N[C@@H](CCCCN)C(=O)N2)NC(=O)[C@H](CSSC[C@@H](C(=O)N[C@@H](CCCCN)C(=O)N[C@@H](Cc2ccc(O)cc2)C(=O)N[C@H](C(=O)N[C@@H](Cc2ccccc2)C(=O)N[C@@H](CCC(=O)O)C(N)=O)C(C)C)NC(=O)[C@H](Cc2c[nH]c4ccccc24)NC(=O)[C@H](CCCCN)NC(=O)[C@H](Cc2c[nH]cn2)NC(=O)[C@H]([C@@H](C)O)NC(=O)[C@H](CCCNC(=N)N)NC(=O)[C@H](CO)NC3=O)NC(=O)[C@H](CCCCN)NC(=O)[C@H](CC(=O)O)NC(=O)[C@H](CC(N)=O)NC(=O)[C@H](CC(=O)O)NC(=O)[C@@H]2CCCN2C1=O [compound 790] (H-DCLGAMRKCIPDNDKCCRPNLVCSRTHKWCKYVFE-NH2; disulfide 2-17, 9-23, 16-30)
- pIC50 (hNav1.7): < 5.30
- pIC50 (hNav1.5): 4.55
- pIC50 (hNav1.3): < 5.30
